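The concentration for 50% growth inhibition is given as GI50. TGI is the concentration that stops growth completely.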
Tests used:
Test in all cases: NCI tumour cell line growth inhibition, 384-well format
SR leukemia = test system: SR leukemia
SNB-19 CNS = test system: SNB-19 CNS
OVCAR-3 ovarian = test system: OVCAR-3 ovarian
NCI-H23 lung = test system: NCI-H23 lung
ACHN renal = test system: ACHN renal
NCI/ADR-RES ovarian = test system: NCI/ADR-RES ovarian
KM12 colon = test system: KM12 colon
BT-549 breast = test system: BT-549 breast
OVCAR-8 ovarian = test system: OVCAR-8 ovarian
MOLT-4 leukemia = test system: MOLT-4 leukemia
SN12C renal = test system: SN12C renal
SF-268 CNS = test system: SF-268 CNS
HOP-62 NSCLC = test system: HOP-62 NSCLC
SNB-75 CNS = test system: SNB-75 CNS
CAKI-1 renal = test system: CAKI-1 renal
SW-620 colon = test system: SW-620 colon
RPMI-8226 leukemia = test system: RPMI-8226 leukemia
HOP-92 NSCLC = test system: HOP-92 NSCLC
MDA-MB-468 breast = test system: MDA-MB-468 breast
A549 NSCLC = test system: A549 NSCLC
EKVX NSCLC = test system: EKVX NSCLC
786-0 renal = test system: 786-0 renal
HCC-2998 colon = test system: HCC-2998 colon
COLO 205 colon = test system: COLO 205 colon
MCF7 breast = test system: MCF7 breast
HS 578T breast = test system: HS 578T breast
PC-3 prostate = test system: PC-3 prostate
HCT-116 colon = test system: HCT-116 colon
CCRF-CEM leukemia = test system: CCRF-CEM leukemia
OVCAR-4 ovarian = test system: OVCAR-4 ovarian
RXF 393 renal = test system: RXF 393 renal
NCI-H460 NSCLC = test system: NCI-H460 NSCLC
UACC-62 melanoma = test system: UACC-62 melanoma
K-562 leukemia = test system: K-562 leukemia
HCT-15 colon = test system: HCT-15 colon
UO-31 renal = test system: UO-31 renal
MDA-MB-435 melanoma = test system: MDA-MB-435 melanoma
MALME-3M melanoma = test system: MALME-3M melanoma
TK-10 renal = test system: TK-10 renal
SK-MEL-28 melanoma = test system: SK-MEL-28 melanoma
OVCAR-5 ovarian = test system: OVCAR-5 ovarian
M14 melanoma = test system: M14 melanoma
SK-MEL-2 melanoma = test system: SK-MEL-2 melanoma
IGROV1 ovarian = test system: IGROV1 ovarian
SK-OV-3 ovarian = test system: SK-OV-3 ovarian
HL-60(TB) leukemia = test system: HL-60(TB) leukemia
LOX IMVI melanoma = test system: LOX IMVI melanoma
MDA-MB-231 breast = test system: MDA-MB-231 breast
SK-MEL-5 melanoma = test system: SK-MEL-5 melanoma
A498 renal = test system: A498 renal
NCI-H322M lung = test system: NCI-H322M lung
T-47D breast = test system: T-47D breast
HT29 colon = test system: HT29 colon
SF-539 CNS = test system: SF-539 CNS
NCI-H522 lung = test system: NCI-H522 lung
SF-295 CNS = test system: SF-295 CNS
NCI-H226 lung = test system: NCI-H226 lung
DU-145 prostate = test system: DU-145 prostate
UACC-257 melanoma = test system: UACC-257 melanoma
U251 glioblastoma = test system: U251 glioblastoma

C[C@@H](Oc1cc(-c2cnn(C3CCNCC3)c2)cnc1N)c1c(Cl)cc(F)cc1Cl
GI50 (SR leukemia): 42.3 nM | TGI (SR leukemia): 73.8 nM | GI50 (SNB-19 CNS): 3870 nM | TGI (SNB-19 CNS): 8610 nM | GI50 (OVCAR-3 ovarian): 2540 nM | TGI (OVCAR-3 ovarian): 6470 nM | GI50 (NCI-H23 lung): 641 nM | TGI (NCI-H23 lung): 2420 nM | GI50 (ACHN renal): 1890 nM | TGI (ACHN renal): 5770 nM | GI50 (NCI/ADR-RES ovarian): 6360 nM | TGI (NCI/ADR-RES ovarian): 16000 nM | GI50 (KM12 colon): 43.1 nM | TGI (KM12 colon): 2270 nM | GI50 (BT-549 breast): 1850 nM | TGI (BT-549 breast): 3450 nM | GI50 (OVCAR-8 ovarian): 2030 nM | TGI (OVCAR-8 ovarian): 5410 nM | GI50 (MOLT-4 leukemia): 196 nM | TGI (MOLT-4 leukemia): 377 nM | GI50 (SN12C renal): 2110 nM | TGI (SN12C renal): 8700 nM | GI50 (SF-268 CNS): 2210 nM | TGI (SF-268 CNS): 5320 nM | GI50 (HOP-62 NSCLC): 2160 nM | TGI (HOP-62 NSCLC): 6370 nM | GI50 (SNB-75 CNS): 1900 nM | TGI (SNB-75 CNS): 3850 nM | GI50 (CAKI-1 renal): 1350 nM | TGI (CAKI-1 renal): 2980 nM | GI50 (SW-620 colon): 1250 nM | TGI (SW-620 colon): 4650 nM | GI50 (RPMI-8226 leukemia): 1160 nM | TGI (RPMI-8226 leukemia): 2970 nM | GI50 (HOP-92 NSCLC): 1030 nM | TGI (HOP-92 NSCLC): 2360 nM | GI50 (MDA-MB-468 breast): 725 nM | TGI (MDA-MB-468 breast): 1560 nM | GI50 (A549 NSCLC): 860 nM | TGI (A549 NSCLC): 4420 nM | GI50 (EKVX NSCLC): 2200 nM | TGI (EKVX NSCLC): 6700 nM | GI50 ([…]-0 renal): 1480 nM | TGI (786-0 renal): 2960 nM | GI50 (HCC-2998 colon): 2210 nM | TGI (HCC-2998 colon): 4910 nM | GI50 (COLO 205 colon): 971 nM | TGI (COLO 205 colon): 2390 nM | GI50 (MCF7 breast): 614 nM | TGI (MCF7 breast): 1860 nM | GI50 (HS 578T breast): 1480 nM | TGI (HS 578T breast): 3710 nM | GI50 (PC-3 prostate): 1940 nM | TGI (PC-3 prostate): 5570 nM | GI50 (HCT-116 colon): 728 nM | TGI (HCT-116 colon): 1970 nM | GI50 (CCRF-CEM leukemia): 277 nM | TGI (CCRF-CEM leukemia): 660 nM | GI50 (OVCAR-4 ovarian): 5810 nM | TGI (OVCAR-4 ovarian): 11000 nM | GI50 (RXF 393 renal): 1940 nM | TGI (RXF 393 renal): 3610 nM | GI50 (NCI-H460 NSCLC): 529 nM | TGI (NCI-H460 NSCLC): 2650 nM | GI50 (UACC-62 melanoma): 1390 nM | TGI (UACC-62 melanoma): 3090 nM | GI50 (K-562 leukemia): 131 nM | TGI (K-562 leukemia): 262 nM | GI50 (HCT-15 colon): 1720 nM | TGI (HCT-15 colon): 5470 nM | GI50 (UO-31 renal): 2640 nM | TGI (UO-31 renal): 6430 nM | GI50 (MDA-MB-435 melanoma): 2570 nM | TGI (MDA-MB-435 melanoma): 6790 nM | GI50 (MALME-3M melanoma): 1230 nM | TGI (MALME-3M melanoma): 2480 nM | GI50 (TK-10 renal): 3660 nM | TGI (TK-10 renal): 7630 nM | GI50 (SK-MEL-28 melanoma): 1600 nM | TGI (SK-MEL-28 melanoma): 3090 nM | GI50 (OVCAR-5 ovarian): 2220 nM | TGI (OVCAR-5 ovarian): 6920 nM | GI50 (M14 melanoma): 1490 nM | TGI (M14 melanoma): 2830 nM | GI50 (SK-MEL-2 melanoma): 1450 nM | TGI (SK-MEL-2 melanoma): 2760 nM | GI50 (IGROV1 ovarian): 2770 nM | TGI (IGROV1 ovarian): 7260 nM | GI50 (SK-OV-3 ovarian): 5400 nM | TGI (SK-OV-3 ovarian): 9790 nM | GI50 (HL-60(TB) leukemia): 256 nM | TGI (HL-60(TB) leukemia): 485 nM | GI50 (LOX IMVI melanoma): 1330 nM | TGI (LOX IMVI melanoma): 2630 nM | GI50 (MDA-MB-231 breast): 1550 nM | TGI (MDA-MB-231 breast): 3490 nM | GI50 (SK-MEL-5 melanoma): 1390 nM | TGI (SK-MEL-5 melanoma): 2700 nM | GI50 (A498 renal): 1650 nM | TGI (A498 renal): 3840 nM | GI50 (NCI-H322M lung): 2880 nM | TGI (NCI-H322M lung): 8370 nM | GI50 (T-47D breast): 2190 nM | TGI (T-47D breast): 6110 nM | GI50 (HT29 colon): 1020 nM | TGI (HT29 colon): 2300 nM | GI50 (SF-539 CNS): 1700 nM | TGI (SF-539 CNS): 3650 nM | GI50 (NCI-H522 lung): 3210 nM | TGI (NCI-H522 lung): 7290 nM | GI50 (SF-295 CNS): 1210 nM | TGI (SF-295 CNS): 4300 nM | GI50 (NCI-H226 lung): 1250 nM | TGI (NCI-H226 lung): 3250 nM | GI50 (DU-145 prostate): 2090 nM | TGI (DU-145 prostate): 6250 nM | GI50 (UACC-257 melanoma): 1670 nM | TGI (UACC-257 melanoma): 3040 nM | GI50 (U251 glioblastoma): 2780 nM | TGI (U251 glioblastoma): 7160 nM
